According to US9463188B2, “Osteopontin production inhibitor containing dictyopyrone derivative or dihydrodictyopyrone derivative as active ingredient” (TOHOKU UNIVERSITY, priority 2013, dated 2016):

What was measured:
[1] = system: human OPN promoter (pOPN1-luc) in A549/OPNluc cells; assay: Luciferase assay: luciferase expression under control of OPN promoter; format: cell-based
Excerpt: A reporter vector pOPN1-luc obtained by inserting a human OPN promoter sequence (−765 to 23) into the multiple cloning site of pGL-3 basic vector (Promega) expresses luciferase when transfected into animal cells. This pOPN1-luc was transfected into a human non-small cell lung cancer-derived cell line A549 together with pPUR (Clontech) that expresses a puromycin resistance gene (puromycin-N-acetyl-transferase gene), and cells that could grow in a puromycin-supplemented medium and expressed luciferase were selected. The selected cells were named A549/OPNluc cells and used for observation of luciferase expression inhibitory effect under control of OPN promoter, as described later.
A test compound was added to a culture liquid containing A549/OPNluc cells to observe its influence on the amount of luciferase expressed in the cells. Here, it can be considered that when the test compound has cytotoxity or cell growth-suppressing effect, the total expression level of luciferase is reduced due to a reduction in the number of living cells that depends on the concentration of the test compound, and therefore the luciferase expression inhibitory effect of the test compound under control of OPN promoter cannot be properly evaluated. For this reason, WST assay for quantification of cell proliferation ability or cell viability by colorimetric measurement was first performed to determine IC50 (concentration for 50% inhibition of cell growth) of the test compound for cell growth. Then, luciferase activity measurement was performed to determine EC50 (concentration for 50% inhibition of luciferase expression) of the test compound for luciferase expression under control of OPN promoter.
The same steps as in the above-described WST assay were performed in which only DMSO (control) or the diluted test compound (sample) solution was added in an amount of 0.5 μL to each well containing the cell suspension to achieve 200-fold dilution, and the solution in each well was mixed with a vortex mixer, and the 96-well plate was incubated in a CO2 incubator (at 37° C. and 5% CO2) for 48±4 hours.
A luciferase reagent was prepared by dissolving Luciferase Assay Substrate (hereinafter, referred to as “LAS”) supplied in Luciferase Assay Systems (Promega: Cat# E1500) with Luciferase Assay Buffer (LAB). 5× Cell Culture Lysis Reagent (hereinafter, referred to as “CCLR”) was diluted with water 5-fold to prepare 1×CCLR.
After the incubation for 48±4 hours, the medium in each well was completely removed, and 50 μL of 1×CCLR was dispensed into each well. The 96-well plate was allowed to stand at room temperature for 30 minutes, and then 1×CCLR in each well was used as an assay sample. The luciferase reagent of 100 μL was placed in a tube for chemiluminescence measurement, and 20 μL of the assay sample was added to the tube and mixed with the luciferase reagent to measure chemiluminescence (Relative Luminescence Intensity: RLU) using Tuner Design Luminometer 20/20 (Promega).
The RLU values of the control wells and the RLU values of the sample wells at each concentration were input into an Excel file, and the percentages of RLU values of the sample wells at each concentration with respect to the average of RLU values of the control wells were determined. From these values, a fitted curve was determined by the method of least squares to calculate EC50.

[2] = system: OPN production by human liver cancer-derived cell line HepG2; assay: OPN production by HepG2 cells (Human Osteopontin Immunoassay, per mg protein); format: cell-based; conditions: 2-day culture; for suppression of OPN production vs control group: significance level less than 1%
Experimental: The confirmation test was performed in the following manner. The compound 3 wad added to a culture liquid containing cells of a human non-small cell lung cancer-derived cell line A549 or a human liver cancer-derived cell line HepG2, and the amount of OPN in culture supernatant after 2-day culture was measured using Human Osteopontin Immunoassay kit (R&D systems) and compared with the OPN amount of a compound 3-free group (control group).
The compound 3 has also cell growth inhibitory effect. Therefore, in order to properly evaluate the OPN production-suppressing effect of the compound 3, 1×CCLR used in luciferase assay was added to cells remaining in each well after removal of culture supernatant to prepare a cell lysate, and the amount of protein in the cell lysate was measured using BCA Protein Assay Kit (Thermo Scientific). The influence of addition of the compound 3 on the amount of OPN production was evaluated by comparison of the amount of OPN per milligram of protein.
First, A549 cells or HepG2 cells were suspended in DMEM medium containing 10% FCS and 1% P/S at 4×10^4 cells/mL to obtain a cell suspension, and 500 μL of the cell suspension was dispensed into each well of a 24-well plate. In order to perform the test in triplicate, 3 wells were prepared for a control group and 3 wells were prepared for each test compound-treated group at each concentration. The 24-well plate was incubated in a CO2 incubator (at 37° C. and 5% CO2) for 24±4 hours.
The 3.75 mmol/L compound 3 solution or the 7.5 mmol/L compound 3 solution was added in an amount of 2 μL to each well in which HepG2 cells were cultured. Only DMSO was added to each control well in an amount of 2 μL.
The 24-well plate was rocked back and forth and side to side to mix the solution in each well, and was then incubated in a CO2 incubator (at 37° C. and 5% CO2) for 48±4 hours. Then, the total amount of culture supernatant was transferred into a 1.5 mL tube, and 500 μL of D-PBS(−) was added to each well in which cells are remained. […]

- EC50 value relative to respective IC50 value ([1]; EC50 luciferase assay vs IC50 WST assay): ½
- EC50 ([1]; Homo sapiens, 48±4 hours, read-out: EC50 (concentration for 50% inhibition of luciferase expression under control of OPN promoter)): 15.9 µM
Compound: CCCCCCCCCCCC(=O)[C@H]1C(=O)O[C@@H](C)C[C@@H]1C [Chemical formula 3]
- suppression of OPN production vs control group ([2]; 15 μmol/L): significantly suppressed
- amount of OPN produced relative to control group ([2]; 30 μmol/L): reduced to half or less
- suppression of OPN production vs control group ([2]; 30 μmol/L): significantly suppressed
